Source: patent publication EP1903056A2, “HLA-A1, -A2 -A3, -A24, -B7, and -B44 tumor associated antigen peptides and compositions” (priority 2002, dated 2004)

What was measured:
B*3501 = B*3501 (Homo sapiens, UniProt P01889, A329T/A93T/A95T/C349S/D201E/D98Y/E176V/E187L/E204Q/E69T/I218V/K202T/L119I/Q94N/R155S/R180L/S121R/S35A/S48A/T118I/V127L/V306I/V36M/Y140S/Y91F); experiment: Class I peptide-binding assay, B*3501
HLA-A*2402 = HLA-A*2402 (Homo sapiens, UniProt P04439, D101N/D140Y/D185E/E176V/E190D/F33S/G103R/G107R/I119L/I121M/I306V/K335N/L105A/L180Q/L300P/N151K/N90K/Q86E/Q94H/R106L/R138H/R89G/T104I/T345S/V100E/W191G/Y123F); experiment: Class I peptide-binding assay, A*2402; settings: Table 19a, CEA-derived A24 binders
HLA-A*0101 = HLA-A*0101 (Homo sapiens, UniProt P04439, A114D/A174V/A182V/D101N/D185E/E176A/E190D/L180R/Q94H/R68K/S129P/T187R/V100A/V91M/W191G); experiment: Class I peptide-binding assay, A*0101; settings: Table 18a, CEA-derived A1 binders
B*5401 = B*5401 (Homo sapiens, UniProt P01889, A329T/C349S/D138N/D201E/E176V/E187T/E204Q/E69G/I76V/K202T/L119W/R155S/R180L/S121T/S35A/S48A/V127L/V306I/V36M/Y140L); experiment: Class I peptide-binding assay, B*5401; settings: Table 17a
cervical cancer patients [1] = settings: two weeks after vaccination; PBMC stimulated in vitro with 5 µg/ml PADRE peptide; proliferation index > 5; cited from earlier work
melanoma patients = melanoma patients vaccinated with peptide-pulsed DC or the peptide alone; cited from earlier work
cervical cancer patients [2] = settings: cited from earlier work

Which IC50 (B*3501; Table 17a) does the source give for `CC[C@H](C)[C@H](NC(=O)[C@H](CO)NC(=O)[C@H](Cc1ccc(O)cc1)NC(=O)CNC(=O)[C@H](Cc1ccccc1)NC(=O)[C@H](CC(C)C)NC(=O)[C@H](Cc1c[nH]cn1)NC(=O)[C@H](CCC(N)=O)NC(=O)[C@@H]1CCCN1C(=O)[C@@H](N)CC(C)C)C(=O)O` [CEA.58I10] here?
Its IC50 is 10000 nM.

Which IC50 (HLA-A*2402) does the source give for `CC(C)C[C@H](NC(=O)[C@H](CO)NC(=O)[C@H](CCC(N)=O)NC(=O)CNC(=O)[C@H](CC(N)=O)NC(=O)[C@@H](NC(=O)[C@H](Cc1c[nH]c2ccccc12)NC(=O)[C@H](Cc1c[nH]c2ccccc12)NC(=O)[C@@H](N)CC(C)C)C(C)C)C(=O)O` [compound 283] here?
Its IC50 is 1460 nM.

Which IC50 (HLA-A*0101) does the source give for `CC[C@H](C)[C@H](N)C(=O)N[C@H](C(=O)N[C@@H](CCC(=O)O)C(=O)N[C@@H](CCCCN)C(=O)N[C@@H](CC(N)=O)C(=O)N[C@@H](CO)C(=O)NCC(=O)N[C@@H](CC(C)C)C(=O)N[C@@H](Cc1ccc(O)cc1)C(=O)O)[C@@H](C)O` [compound 179] here?
The IC50 was 641 nM.

With `CC[C@H](C)[C@H](N)C(=O)N1CCC[C@H]1C(=O)N[C@@H](Cc1c[nH]c2ccccc12)C(=O)N[C@@H](CCC(N)=O)C(=O)N[C@@H](CCCNC(=N)N)C(=O)N[C@@H](CC(C)C)C(=O)N[C@@H](CC(C)C)C(=O)N[C@@H](CC(C)C)C(=O)N[C@H](C(=O)N[C@@H](C)C(=O)O)[C@@H](C)O` [CEA.13] as the compound, how does the IC50 (B*5401) read?
The IC50 was 32 nM.

What about the IC50 (B*3501; Table 17a) of the same compound?
The IC50 was 10000 nM.

For `CC[C@H](C)[C@H](NC(=O)[C@@H]1CCCN1C(=O)[C@H](CC(C)C)NC(=O)[C@@H]1CCCN1C(=O)CNC(=O)[C@H](CCC(=O)O)NC(=O)[C@H](CCCNC(=N)N)NC(=O)[C@@H]1CCCN1C(=O)[C@H](CO)NC(=O)[C@@H]1CCCN1C(=O)[C@@H]1CCCN1)C(=O)O` [Her2/neu.1149.I11], which IC50 (B*3501; Table 17b) is on record?
The IC50 was 1000 nM.

Which IC50 (B*3501; Table 17a) does the source give for `CC[C@H](C)[C@H](N)C(=O)N1CCC[C@H]1C(=O)N[C@@H](Cc1c[nH]c2ccccc12)C(=O)N[C@@H](CCC(N)=O)C(=O)N[C@@H](CCCNC(=N)N)C(=O)N[C@@H](CC(C)C)C(=O)N[C@@H](CC(C)C)C(=O)N[C@@H](CC(C)C)C(=O)N[C@H](C(=O)N[C@H](C(=O)O)[C@@H](C)CC)[C@@H](C)O` [CEA.13I10] here?
Its IC50 is 10000 nM.

With `CC(C)C[C@H](NC(=O)[C@@H](NC(=O)[C@H](Cc1c[nH]c2ccccc12)NC(=O)[C@H](C)NC(=O)[C@H](C)NC(=O)[C@@H](NC(=O)[C@H](CC1CCCCC1)NC(=O)[C@H](CCCCN)NC(=O)[C@@H](C)N)C(C)C)[C@@H](C)O)C(=O)N[C@@H](CCCCN)C(=O)N[C@@H](C)C(=O)N[C@@H](C)C(=O)N[C@H](C)C(N)=O` [aKXVAAWTLKAAa-NH2] as the compound, how does the “patients displaying PADRE-specific proliferation” value (cervical cancer patients [1]) read?
The value was 4/12.

For `CC[C@H](C)[C@H](NC(=O)[C@@H]1CCCN1C(=O)[C@H](CC(=O)O)NC(=O)[C@@H](NC(=O)[C@@H](N)CCC(=O)O)C(C)C)C(=O)NCC(=O)N[C@@H](Cc1c[nH]cn1)C(=O)N[C@@H](CC(C)C)C(=O)N[C@@H](Cc1ccc(O)cc1)C(=O)O` [MAGE3.168], which “tumor regression in vaccinated patients” value (melanoma patients) is on record?
The value was “tumor regression was observed”.

What does the source list for `CC(C)C[C@H](NC(=O)[C@@H](NC(=O)[C@H](Cc1c[nH]c2ccccc12)NC(=O)[C@H](C)NC(=O)[C@H](C)NC(=O)[C@@H](NC(=O)[C@H](CC1CCCCC1)NC(=O)[C@H](CCCCN)NC(=O)[C@@H](C)N)C(C)C)[C@@H](C)O)C(=O)N[C@@H](CCCCN)C(=O)N[C@@H](C)C(=O)N[C@@H](C)C(=O)N[C@H](C)C(N)=O` [PADRE, aKXVAAWTLKAAa-NH2]?
responding patients (cervical cancer patients [2]; 95% interval 10-65%): 33%; safety in trial (cervical cancer patients [2]; patients with recurrent or residual cervical carcinoma): favorable safety profile
